# Values joined by “and” are separate entries in the source; they are usually repeats but may differ in a detail not shown here. Equal values may be shown once.
# System: SK-MEL-2 multi-cell spheroids, viability
# Assay: Anticancer human tumor SK-MEL-2 cell line growth inhibition [TAK];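 further: spheroids exposed to drugs for seven days before readout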;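 on viability, T/C: percent of DMSO vehicle control luminescence so 100% = untreated viability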
# Conditions: for viability, T/C: stronger effect = lower value
# Excerpt: Combinatorial screen of targeted agents with TAK-243 and ipatasertib in multi-cell type tumor spheroids
# A high-throughput screen of multi-cell type tumor spheroids was designed to identify active combinations of targeted small molecules and TAK-243 or ipatasertib. Complex spheroids include a stromal component modeled by human endothelial cells (HUVEC) and fibroblasts modeled by human mesenchymal stem cells (MSCs). The concentration ranges selected for each drug and investigational agent were based upon clinically achievable concentrations if the clinical Cmax of the agent was known.
# Compounds. The drugs and investigational agents: TAK-243 (785004), ipatasertib (767898), everolimus (733504), selumetinib (741078), bortezomib (756655), trametinib (758246), ixazomib (758254), vemurafenib (761431), dabrafenib (764134), sapanisertib (764658), alpelisib (765974), and copanlisib (816437), were obtained from the National Cancer Institute (NCI) Developmental Therapeutics Program Chemical Repository. The FDA-approved anticancer drug set is available from the NCI Developmental Therapeutics Program. […] The stock solutions were prepared in dimethyl sulfoxide (DMSO, Sigma-Aldrich, St. Louis, MO, cat. D2650) at 800-fold the tested concentration and stored at -70 degrees C prior to their use. All drugs and investigational agents were tested over a range starting from a high concentration at or near the clinical Cmax and decreasing in half-log increments. If the clinical Cmax for an agent had not been determined, the highest concentration tested was 10 microM.
# NCI60 Cell Culture. NCI60 cell lines were obtained from the NCI Developmental Therapeutics Program Tumor Repository. For each lot of cells, the Repository performed Applied Biosystems AmpFLSTR Identifiler testing with PCR amplification to confirm consistency with the published Identifier STR profile for each cell line. Cells were kept in continuous culture for no more than 20 passages. The optimal seeding densities for each of the cell lines at each time point assessed were determined prior to performing the concentration response studies. Briefly, the NCI60 human tumor lines were grown as monolayers in RPMI 1640 medium supplemented with 10% FBS and 2 mmol/L L-glutamine.
# An additional 2 lines were from the NCI60 cell line panel including melanomas, MALME-3M and SK-MEL-2. Pooled donor human umbilical vein endothelial cells (HUVEC, Lonza, cat. CC-2519) and human mesenchymal stem cells (hMSC, Lonza, cat. PT-2501) were purchased from Lonza (Walkersville, MD).
# PDMR cell lines were grown in complete medium (DC medium): Dulbecco's modified Eagle's medium (DMEM)/F12 supplemented with 5% fetal bovine serum (FBS), 2 mM L-glutamine, 100 U/mL penicillin and 100 µg/ml streptomycin, 0.4 µg/ml hydrocortisone, 10 ng/ml epidermal growth factor (EGF) recombinant human protein, 24 µg/mL adenine, and 0.1 mg/mL primocin. During culture from frozen stock vials, PDMR cells were cultured in the same medium containing 10 µM Y-27632 (see Table 3). The PDCs were cultured in complete DMEM/F12 media without 10 microM Y-27632 dihydrochloride for at least two passages prior to the screen. The pooled donor HUVEC and hMSC were cultured in endothelial cell growth medium 2 (PromoCell, Heidelberg, Germany, cat. C-22011) and mesenchymal stem cell growth medium 2 (PromoCell, cat. C-28009), respectively. For all experiments, HUVEC and hMSC were used at passages </=5.
# For the pre-screen, cell seeding densities were determined from a titration spanning the range from 5,000 to 313 cells per well. The mct-spheroids including 60% malignant cells, 25% HUVEC and 15% MSC dispensed as a mixture into U-bottom Ultra-Low Attachment 384-well plates (Corning, NY)
# High-throughput Drug Combination Screening.
# Prior to their inoculation into 384-well plates, malignant cells, HUVEC, and hMSC were removed from T flasks using TrypLE express (Thermo Fisher Scientific, cat. 12605036) and harvested by centrifugation for 5 min at 233 x g. […]
# [1] = curve of first compound, second compound 0.3 µM
# [2] = curve of first compound, second compound 0.949 µM
# [3] = curve of first compound, second compound 3 µM
# [4] = curve of first compound, second compound 9.49 µM
# [5] = curve of first compound, second compound 30 µM
# [6] = second compound 0.3 µM, first compound 0.316 µM
# [7] = second compound 0.3 µM, first compound 1 µM
# [8] = second compound 0.3 µM, first compound 3.16 µM
# [9] = second compound 0.3 µM, first compound 10 µM
# [10] = second compound 0.949 µM, first compound 0.316 µM
# [11] = second compound 0.949 µM, first compound 1 µM
# [12] = second compound 0.949 µM, first compound 3.16 µM
# [13] = second compound 0.949 µM, first compound 10 µM
# [14] = second compound 3 µM, first compound 0.316 µM
# [15] = second compound 3 µM, first compound 1 µM
# [16] = second compound 3 µM, first compound 3.16 µM
# [17] = second compound 3 µM, first compound 10 µM
# [18] = second compound 9.49 µM, first compound 0.316 µM
# [19] = second compound 9.49 µM, first compound 1 µM
# [20] = second compound 9.49 µM, first compound 3.16 µM
# [21] = second compound 9.49 µM, first compound 10 µM
# [22] = second compound 30 µM, first compound 0.316 µM
# [23] = second compound 30 µM, first compound 1 µM
# [24] = second compound 30 µM, first compound 3.16 µM
# [25] = second compound 30 µM, first compound 10 µM
# [26] = second compound 0.3 µM, first compound 0.0316 µM
# [27] = second compound 0.3 µM, first compound 0.1 µM
# [28] = second compound 0.949 µM, first compound 0.0316 µM
# [29] = second compound 0.949 µM, first compound 0.1 µM
# [30] = second compound 3 µM, first compound 0.0316 µM
# [31] = second compound 3 µM, first compound 0.1 µM
# [32] = second compound 9.49 µM, first compound 0.0316 µM
# [33] = second compound 9.49 µM, first compound 0.1 µM
# [34] = second compound 30 µM, first compound 0.0316 µM
# [35] = second compound 30 µM, first compound 0.1 µM
SMILES,IC50 [1],IC50 [2],IC50 [3],IC50 [4],IC50 [5],"viability, T/C [6]","viability, T/C [7]","viability, T/C [8]","viability, T/C [9]","viability, T/C [10]","viability, T/C [11]","viability, T/C [12]","viability, T/C [13]","viability, T/C [14]","viability, T/C [15]","viability, T/C [16]","viability, T/C [17]","viability, T/C [18]","viability, T/C [19]","viability, T/C [20]",other results
CCCS(=O)(=O)Nc1ccc(F)c(C(=O)c2c[nH]c3ncc(-c4ccc(Cl)cc4)cc23)c1F + CC(C)NCC(C(=O)N1CCN(c2ncnc3c2C(C)CC3O)CC1)c1ccc(Cl)cc1,25900 nM,24000 nM,13100 nM,64500 nM,18800 nM,127%,108%,105%,118%,121%,110%,107%,80.3%,115%,110%,105%,61.1%,112%,120%,107%,"viability, T/C (second compound 0.3 µM, first compound 31.6 µM): 15.1%; viability, T/C (second compound 0.3 µM, first compound 100 µM): 57.5%; viability, T/C (second compound 0.949 µM, first compound 31.6 µM): 31.6%; viability, T/C (second compound 0.949 µM, first compound 100 µM): 49.3%; viability, T/C (second compound 3 µM, first compound 31.6 µM): 14.3%; viability, T/C (second compound 3 µM, first compound 100 µM): 10.9%; viability, T/C [21]: 114%; viability, T/C (second compound 9.49 µM, first compound 31.6 µM): 120%; viability, T/C (second compound 9.49 µM, first compound 100 µM): 10.4%; viability, T/C [22]: 121%; viability, T/C [23]: 124%; viability, T/C [24]: 64.3%; viability, T/C [25]: 119%; viability, T/C (second compound 30 µM, first compound 31.6 µM): 2.99%; viability, T/C (second compound 30 µM, first compound 100 µM): 2.24%"
CC(=O)Nc1cccc(-n2c(=O)n(C3CC3)c(=O)c3c(Nc4ccc(I)cc4F)n(C)c(=O)c(C)c32)c1,–,–,–,–,–,–,–,–,–,–,–,–,–,–,–,–,–,–,–,–,"viability, T/C (compound 94.9 pM): 91% and 88.6%; viability, T/C (compound 0.0003 µM): 40.3% and 35.3%; viability, T/C (compound 0.000949 µM): 17.9% and 15.7%; viability, T/C (compound 0.003 µM): 6.38% and 5.17%; viability, T/C (compound 0.00949 µM): 3.87% and 4.14%; viability, T/C (compound 0.03 µM): 2.42% and 3.1%; IC50 (curve of compound): 0.242 nM and 0.22 nM"
Cc1nc(NC(=O)N2CCCC2C(N)=O)sc1-c1ccnc(C(C)(C)C(F)(F)F)c1 (configuration not stated) + CC(C)NCC(C(=O)N1CCN(c2ncnc3c2C(C)CC3O)CC1)c1ccc(Cl)cc1,> 10000 nM,> 10000 nM,> 10000 nM,> 10000 nM,218 nM,70.5%,79.8%,75.3%,55.6%,64.8%,65.8%,59.5%,49.4%,52.8%,58.8%,57.3%,51.2%,48.7%,51.1%,55.9%,"viability, T/C [26]: 97%; viability, T/C [27]: 84.7%; viability, T/C [28]: 85%; viability, T/C [29]: 74.7%; viability, T/C [30]: 66.1%; viability, T/C [31]: 67.3%; viability, T/C [32]: 56%; viability, T/C [33]: 56.4%; viability, T/C [21]: 49.2%; viability, T/C [34]: 52.4%; viability, T/C [35]: 55.8%; viability, T/C [22]: 46.2%; viability, T/C [23]: 43.7%; viability, T/C [24]: 50.3%; viability, T/C [25]: 40%"
CC(C)(C)c1nc(-c2cccc(NS(=O)(=O)c3c(F)cccc3F)c2F)c(-c2ccnc(N)n2)s1 + CC(C)NCC(C(=O)N1CCN(c2ncnc3c2C(C)CC3O)CC1)c1ccc(Cl)cc1,590 nM,496 nM,323 nM,285 nM,230 nM,75.9%,28.6%,12.5%,17.2%,66.3%,25.6%,8.33%,15.6%,50.1%,15.7%,6.41%,11.7%,46.5%,9.65%,4.3%,"viability, T/C [26]: 138%; viability, T/C [27]: 118%; viability, T/C [28]: 119%; viability, T/C [29]: 109%; viability, T/C [30]: 108%; viability, T/C [31]: 105%; viability, T/C [32]: 88.1%; viability, T/C [33]: 85.5%; viability, T/C [21]: 10.2%; viability, T/C [34]: 73.1%; viability, T/C [35]: 73.8%; viability, T/C [22]: 41.1%; viability, T/C [23]: 9.6%; viability, T/C [24]: 5.11%; viability, T/C [25]: 10%"

# Reference: PubChem BioAssay AID2060344 (Molecular Pharmacology Branch, DTP, NCI, 2025)
